Patent US20190352288A1, “MATRIX METALLOPROTEINASE (MMP) INHIBITORS AND METHODS OF USE THEREOF” (Foresee Pharmaceuticals Co., Ltd., priority 2018, published 2019)

Key:
Format in all cases: biochemical
Conditions in all cases: Table 2 selectivity profile
recombinant human MMP-1 = biological target: T1, recombinant human MMP-1 (Homo sapiens, UniProt P03956); experiment: MMP selectivity assay, MMP-1
T1 sequence (P03956 100-469): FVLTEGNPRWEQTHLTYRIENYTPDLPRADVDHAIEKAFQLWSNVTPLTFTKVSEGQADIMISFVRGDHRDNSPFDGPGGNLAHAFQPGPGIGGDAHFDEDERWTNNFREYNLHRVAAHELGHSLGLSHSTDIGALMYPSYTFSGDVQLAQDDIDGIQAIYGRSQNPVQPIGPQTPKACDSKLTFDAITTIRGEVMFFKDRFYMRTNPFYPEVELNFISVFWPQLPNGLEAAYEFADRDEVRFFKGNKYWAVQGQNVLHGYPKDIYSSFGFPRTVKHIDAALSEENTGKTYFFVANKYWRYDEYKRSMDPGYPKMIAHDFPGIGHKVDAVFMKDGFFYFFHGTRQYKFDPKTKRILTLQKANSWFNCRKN
Procedure: (§1) The inhibitory effect of compounds on the rate of cleaving fluorogenic MMP substrate (Enzo, BML-P128) by recombinant human MMP-12 catalytic domain (Enzo, BML-SE138) was carried out by methods known in the art. Briefly, to each well of a 96-well black opaque plate, all the reagents were sequentially added by pipetting, and the final reaction contained 4 nM of recombinant human MMP-12 catalytic domain, 4 μM of fluorogenic MMP substrate, and various concentrations (0.15 nM to 10,000 nM) of tested compound dilutions in HEPES buffer (pH 7.5) containing 10 mM of CaCl2), 0.01% Brij® 35 (polyoxyethylene (23) lauryl ether), and 0.1 mg/ml of BSA.
(§2) The enzyme and compounds were pre-incubated on a shaker to mix in wells. After an hour of mixing, fluorogenic substrate was added to each well. Reaction without enzyme was used as a blank control in the plate. The plate was then fed into a plate reader to measure fluorescence intensity at Excitation/Emission wavelengths of 340 nm/440 nm every 10 mins for at least 1 hour at 37° C. The IC50 of each compound in MMP-12 inhibition was determined by using a readout obtained at time point 30 minutes.
(§3) The MMP selectivity assay was performed by using other recombinant human MMPs, including MMP-1, MMP-2, MMP-3, MMP-7, MMP-8, MMP-9, MMP-10, MMP-13, and MMP-14. The IC50 of the compounds for the other recombinant human MMPs was determined as described above in Example 1, and are shown in Table 2.

recombinant human MMP-2 = biological target: T2, recombinant human MMP-2 (Homo sapiens, UniProt P08253); experiment: MMP selectivity assay, MMP-2
T2 sequence (P08253 110-660): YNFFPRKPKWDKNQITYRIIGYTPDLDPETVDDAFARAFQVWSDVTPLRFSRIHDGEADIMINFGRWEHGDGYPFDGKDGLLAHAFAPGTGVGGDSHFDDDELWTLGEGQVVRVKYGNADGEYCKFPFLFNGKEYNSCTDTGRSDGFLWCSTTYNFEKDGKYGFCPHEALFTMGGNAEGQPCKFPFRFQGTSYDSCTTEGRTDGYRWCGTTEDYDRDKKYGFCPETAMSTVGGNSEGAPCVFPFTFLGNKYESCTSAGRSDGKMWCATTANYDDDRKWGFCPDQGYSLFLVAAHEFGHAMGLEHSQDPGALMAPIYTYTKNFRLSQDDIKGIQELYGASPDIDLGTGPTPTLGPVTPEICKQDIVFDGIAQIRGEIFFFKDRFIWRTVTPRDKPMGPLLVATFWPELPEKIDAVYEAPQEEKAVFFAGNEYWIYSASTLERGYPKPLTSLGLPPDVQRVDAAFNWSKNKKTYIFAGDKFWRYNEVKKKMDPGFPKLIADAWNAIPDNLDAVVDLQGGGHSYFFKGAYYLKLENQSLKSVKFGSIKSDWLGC
Procedure: as §1, §2, §3

recombinant human MMP-3 = recombinant human MMP-3 (Homo sapiens, UniProt P08254); experiment: MMP selectivity assay, MMP-3
Chain of recombinant human MMP-3 (P08254 100-477): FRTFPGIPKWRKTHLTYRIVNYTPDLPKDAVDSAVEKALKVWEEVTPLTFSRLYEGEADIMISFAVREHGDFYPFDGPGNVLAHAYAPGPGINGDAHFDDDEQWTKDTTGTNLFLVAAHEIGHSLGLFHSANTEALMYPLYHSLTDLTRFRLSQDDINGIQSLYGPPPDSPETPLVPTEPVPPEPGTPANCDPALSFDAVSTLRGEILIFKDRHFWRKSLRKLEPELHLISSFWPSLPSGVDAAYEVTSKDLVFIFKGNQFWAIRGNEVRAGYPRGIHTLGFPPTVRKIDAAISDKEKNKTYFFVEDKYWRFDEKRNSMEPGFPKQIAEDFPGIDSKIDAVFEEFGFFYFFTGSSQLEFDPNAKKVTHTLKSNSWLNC
Procedure: as §1, §2, §3

recombinant human MMP-7 = biological target: T3, recombinant human MMP-7 (Homo sapiens, UniProt P09237); experiment: MMP selectivity assay, MMP-7
T3 sequence (P09237 95-267): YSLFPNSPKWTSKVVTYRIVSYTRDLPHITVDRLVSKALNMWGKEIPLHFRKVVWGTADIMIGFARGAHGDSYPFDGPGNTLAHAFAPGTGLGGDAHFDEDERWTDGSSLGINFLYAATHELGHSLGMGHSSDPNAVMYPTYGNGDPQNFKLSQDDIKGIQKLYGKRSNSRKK
Procedure: as §1, §2, §3

recombinant human MMP-8 = recombinant human MMP-8 (Homo sapiens, UniProt P22894); experiment: MMP selectivity assay, MMP-8
Chain of recombinant human MMP-8 (P22894 101-467): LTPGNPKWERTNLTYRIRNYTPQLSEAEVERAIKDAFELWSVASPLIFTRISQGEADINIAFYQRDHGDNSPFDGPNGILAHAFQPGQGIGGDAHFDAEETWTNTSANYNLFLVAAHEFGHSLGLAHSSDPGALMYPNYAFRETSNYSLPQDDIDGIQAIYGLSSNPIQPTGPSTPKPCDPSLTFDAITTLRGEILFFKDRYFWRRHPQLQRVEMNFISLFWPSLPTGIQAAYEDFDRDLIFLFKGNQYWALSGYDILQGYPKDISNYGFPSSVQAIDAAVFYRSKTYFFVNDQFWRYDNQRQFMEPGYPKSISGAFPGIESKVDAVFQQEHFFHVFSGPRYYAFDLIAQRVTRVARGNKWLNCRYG
Procedure: as §1, §2, §3

recombinant human MMP-9 = recombinant human MMP-9 (Homo sapiens, UniProt P14780); experiment: MMP selectivity assay, MMP-9
Chain of recombinant human MMP-9 (P14780 94-707): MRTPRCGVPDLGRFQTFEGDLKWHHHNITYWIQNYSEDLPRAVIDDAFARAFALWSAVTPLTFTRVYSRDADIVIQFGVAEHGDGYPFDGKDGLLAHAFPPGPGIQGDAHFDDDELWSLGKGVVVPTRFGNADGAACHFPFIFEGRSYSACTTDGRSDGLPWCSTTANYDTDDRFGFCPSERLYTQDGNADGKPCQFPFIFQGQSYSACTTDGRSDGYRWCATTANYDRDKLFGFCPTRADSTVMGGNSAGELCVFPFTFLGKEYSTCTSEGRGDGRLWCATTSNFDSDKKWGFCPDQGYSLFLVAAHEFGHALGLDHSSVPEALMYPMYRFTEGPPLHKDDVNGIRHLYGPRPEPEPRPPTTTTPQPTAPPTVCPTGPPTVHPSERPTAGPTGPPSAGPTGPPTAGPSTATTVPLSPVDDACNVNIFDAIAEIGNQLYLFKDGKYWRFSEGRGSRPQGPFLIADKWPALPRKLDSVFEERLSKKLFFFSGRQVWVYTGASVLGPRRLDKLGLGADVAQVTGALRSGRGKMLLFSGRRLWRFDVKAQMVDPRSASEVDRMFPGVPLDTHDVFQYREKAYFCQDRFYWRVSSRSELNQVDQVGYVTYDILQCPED
Procedure: as §1, §2, §3

recombinant human MMP-10 = recombinant human MMP-10 (Homo sapiens, UniProt P09238); experiment: MMP selectivity assay, MMP-10
Chain of recombinant human MMP-10 (P09238 99-476): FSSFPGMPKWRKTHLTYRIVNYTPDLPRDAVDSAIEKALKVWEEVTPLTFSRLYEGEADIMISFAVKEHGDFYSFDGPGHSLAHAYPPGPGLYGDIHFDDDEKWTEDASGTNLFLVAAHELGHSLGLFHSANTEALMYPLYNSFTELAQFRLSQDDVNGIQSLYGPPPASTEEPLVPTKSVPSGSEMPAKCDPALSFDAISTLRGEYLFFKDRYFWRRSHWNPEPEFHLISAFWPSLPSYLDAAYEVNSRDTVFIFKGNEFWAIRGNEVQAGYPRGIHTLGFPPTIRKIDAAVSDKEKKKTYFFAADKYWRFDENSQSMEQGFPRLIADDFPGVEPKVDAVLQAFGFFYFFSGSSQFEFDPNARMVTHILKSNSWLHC
Procedure: as §1, §2, §3

recombinant human MMP-13 = recombinant human MMP-13 (Homo sapiens, UniProt P45452); experiment: MMP selectivity assay, MMP-13
Procedure: as §1, §2, §3

recombinant human MMP-14 = recombinant human MMP-14 (Homo sapiens, UniProt P50281); experiment: MMP selectivity assay, MMP-14
Procedure: as §1, §2, §3

SMILES	IC50 (recombinant human MMP-1) [nM]	IC50 (recombinant human MMP-2) [nM]	IC50 (recombinant human MMP-3) [nM]	IC50 (recombinant human MMP-7) [nM]	IC50 (recombinant human MMP-8) [nM]	IC50 (recombinant human MMP-9) [nM]	IC50 (recombinant human MMP-10) [nM]	IC50 (recombinant human MMP-13) [nM]	IC50 (recombinant human MMP-14) [nM]
Cc1cc(COc2ccc(Sc3ccncc3C3NC(=O)NC3=O)c(F)c2)ccn1 (stereo not drawn) [PC-50]	> 10000	100 to 1000	100 to 1000	> 10000	100 to 1000	1000 to 10000	1000 to 10000	100 to 1000	1000 to 10000
CCC1(c2cnccc2Sc2ccc(OCc3cccc(C)c3)cc2)NC(=O)NC1=O (stereo not drawn) [PC-22]	> 10000	1000 to 10000	100 to 1000	> 10000	1000 to 10000	1000 to 10000	1000 to 10000	100 to 1000	1000 to 10000
O=C1NC(=O)C(c2cnccc2Sc2ccc(OCc3cccc(CO)c3)cc2)N1 (stereo not drawn) [PC-8]	> 10000	1000 to 10000	1000 to 10000	> 10000	> 10000	> 10000	> 10000	1000 to 10000	> 10000
Cc1cc(COc2ccc(Sc3ncoc3C3NC(=O)NC3=O)cc2)ccn1 (stereo not drawn) [OC-7]	> 10000	100 to 1000	1000 to 10000	> 10000	100 to 1000	1000 to 10000	1000 to 10000	100 to 1000	> 10000
O=C1NC(=O)C(c2ccncc2Sc2ccc(OCc3ccccc3CO)cc2)N1 (stereo not drawn) [PC-12]	> 10000	1000 to 10000	100 to 1000	> 10000	1000 to 10000	1000 to 10000	1000 to 10000	> 10000	> 10000
Cc1cc(COc2ccc(Sc3ccncc3C3NC(=O)NC3=O)c(Cl)c2)ccn1 (stereo not drawn) [PC-51]	> 10000	1000 to 10000	1000 to 10000	1000 to 10000	100 to 1000	1000 to 10000	1000 to 10000	100 to 1000	1000 to 10000
Cc1cc(COc2ccc(Sc3ccncc3C3NC(=O)NC3=O)cc2C)ccn1 (stereo not drawn) [PC-48]	> 10000	1000 to 10000	1000 to 10000	> 10000	1000 to 10000	1000 to 10000	1000 to 10000	100 to 1000	> 10000
Cc1cc(COc2ccc(Sc3cnn(C)c3C3NC(=O)NC3=O)cc2)ccn1 (stereo not drawn) [OC-12]	> 10000	100 to 1000	1000 to 10000	> 10000	100 to 1000	1000 to 10000	1000 to 10000	100 to 1000	1000 to 10000
Cc1cc(COc2ccc(Sc3ccsc3C3NC(=O)NC3=O)cc2)ccn1 (stereo not drawn) [TC8]	> 10000	100 to 1000	100 to 1000	1000 to 10000	10 to 100	100 to 1000	100 to 1000	10 to 100	100 to 1000
O=C1NC(=O)C(c2sccc2Sc2ccc(OCc3ccccc3CO)cc2)N1 (stereo not drawn) [TC5]	> 10000	1000 to 10000	1000 to 10000	> 10000	1000 to 10000	1000 to 10000	1000 to 10000	> 10000	> 10000
NC(=O)c1cccc(COc2ccc(Sc3ccncc3C3NC(=O)NC3=O)cc2)c1 (stereo not drawn) [PC-28]	> 10000	1000 to 10000	1000 to 10000	> 10000	100 to 1000	1000 to 10000	1000 to 10000	100 to 1000	1000 to 10000
O=C1NC(=O)C(c2cnccc2Sc2ccc(OCc3cccc(O)c3)cc2)N1 (stereo not drawn) [PC-10]	> 10000	1000 to 10000	1000 to 10000	> 10000	1000 to 10000	1000 to 10000	> 10000	1000 to 10000	> 10000
